The target in the experiment is T1, Human Factor XIIa (hFXIIa) (Homo sapiens, UniProt P00748).
T1 construct: purchased Enzyme Research Laboratories
T1 sequence (P00748 373-615 limits assumed): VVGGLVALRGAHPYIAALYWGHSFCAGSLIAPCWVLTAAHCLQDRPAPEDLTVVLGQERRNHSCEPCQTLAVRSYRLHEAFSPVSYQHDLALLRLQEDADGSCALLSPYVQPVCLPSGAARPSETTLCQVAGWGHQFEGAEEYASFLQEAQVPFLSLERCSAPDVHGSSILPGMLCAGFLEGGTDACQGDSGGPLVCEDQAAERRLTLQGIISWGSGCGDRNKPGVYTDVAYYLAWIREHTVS
T1 sequence (P00748 20-372 partner limits assumed): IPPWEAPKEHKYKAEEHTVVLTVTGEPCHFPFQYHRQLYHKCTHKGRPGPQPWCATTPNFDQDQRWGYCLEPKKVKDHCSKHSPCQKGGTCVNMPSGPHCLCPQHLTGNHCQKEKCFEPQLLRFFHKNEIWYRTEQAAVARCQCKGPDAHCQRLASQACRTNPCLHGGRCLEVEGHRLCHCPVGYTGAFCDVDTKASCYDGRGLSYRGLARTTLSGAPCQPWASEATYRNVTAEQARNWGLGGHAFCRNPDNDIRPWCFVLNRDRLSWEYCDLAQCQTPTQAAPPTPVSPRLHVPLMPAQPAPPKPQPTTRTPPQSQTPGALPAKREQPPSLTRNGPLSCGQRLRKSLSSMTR
Description: Determination of Human Factor XIIa (hFXIIa) inhibition, fluorogenic substrate IC50 assay. The class given is biochemical. The settings on record: fluorogenic substrate H-DPro-Phe-Arg-AFC at Km, 25° C., read-out: Human FXIIa IC50. The method, then:
Determination of Human Factor XIIa (hFXIIa) inhibition
The Km for the cleavage of the substrate by hFXIIa was determined by standard transformation of the Michaelis-Menten equation, with subsequent inhibition assays performed at substrate Km concentration.

pIC50: −log10 of the molar value.

Take `CCOC(=O)c1nn(-c2cccc(Cl)c2)c2c1CCN(c1cccc(N3CC(C(F)(F)F)CC3=O)c1)C2=O` (stereo not shown) [Example 1405, ethyl 1-(3-chlorophenyl)-7-oxo-6-(3-(2-oxo-4-(trifluoromethyl)pyrrolidin-1-yl)phenyl)-4,5,6,7-tetrahydro-1H-pyrazolo[3,4-c]pyridine-3-carboxylate]: the negative-log IC50 (pIC50) (in general, the negative decadic logarithm of the IC50, by convention in mol/L) is 4.40 to 5.00.

On to `O=C(NCc1cnoc1)c1nn(-c2cccc(Cl)c2)c2c1CCN(c1ccc3c(c1)CN(CCO)CC3)C2=O` [Example 1167, 1-(3-chlorophenyl)-6-(2-(2-hydroxyethyl)-1,2,3,4-tetrahydroisoquinolin-7-yl)-N-(isoxazol-4-ylmethyl)-7-oxo-4,5,6,7-tetrahydro-1H-pyrazolo[3,4-c]pyridine-3-carboxamide], for which the negative logarithm of the IC50 (pIC50) was 6.52 to 7.00.

In the case of `Cc1cn(C)nc1CNC(=O)c1nn(-c2cccc(Cl)c2)c2c1CCN(c1cccc(CN3CCCCC3)c1)C2=O` [Example 1178, 1-(3-chlorophenyl)-N-((1,4-dimethyl-1H-pyrazol-3-yl)methyl)-7-oxo-6-(3-(piperidin-1-ylmethyl)phenyl)-4,5,6,7-tetrahydro-1H-pyrazolo[3,4-c]pyridine-3-carboxamide], the negative-log IC50 (pIC50) was 6.52 to 7.00.

In the case of `CCOC(=O)c1nn(-c2cccc(Cl)c2)c2c1CCN(c1cccc(C(=O)N(C)C)c1)C2=O` [Example 1196, ethyl 1-(3-chlorophenyl)-6-(3-(dimethylcarbamoyl)phenyl)-7-oxo-4,5,6,7-tetrahydro-1H-pyrazolo[3,4-c]pyridine-3-carboxylate], the pIC50 was 5.00 to 5.52.

With `CCNC(=O)c1nn(-c2ccc(C)cc2F)c2c1CCN(c1ccc3c(c1)C(=O)N(C)CC3)C2=O` [Example 2034, N-ethyl-1-(2-fluoro-4-methylphenyl)-6-(2-methyl-1-oxo-1,2,3,4-tetrahydroisoquinolin-7-yl)-7-oxo-4,5,6,7-tetrahydro-1H-pyrazolo[3,4-c]pyridine-3-carboxamide], the pIC50 is 4.40 to 5.00.

Regarding `COCCCN1CCc2ccc(N3CCc4c(C(=O)NCC5CC5)nn(-c5cccc(Cl)c5)c4C3=O)cc2C1` [Example 1053, 1-(3-chlorophenyl)-N-(cyclopropylmethyl)-6-(2-(3-methoxypropyl)-1,2,3,4-tetrahydroisoquinolin-7-yl)-7-oxo-4,5,6,7-tetrahydro-1H-pyrazolo[3,4-c]pyridine-3-carboxamide], the pIC50 was 6.52 to 7.00.

For `CCN1CCc2ccc(N3CCc4c(C(=O)NCc5cc(C)n(C)n5)nn(-c5cccc(Cl)c5)c4C3=O)cc2C1=O` [Example 1219, 1-(3-chlorophenyl)-N-((1,5-dimethyl-1H-pyrazol-3-yl)methyl)-6-(2-ethyl-1-oxo-1,2,3,4-tetrahydroisoquinolin-7-yl)-7-oxo-4,5,6,7-tetrahydro-1H-pyrazolo[3,4-c]pyridine-3-carboxamide], the pIC50 was 7.00 to 8.00.

Consider `CN1CCc2ccc(N3CCc4c(C(=O)NC[C@H]5C[C@H](O)C5)nn(-c5cccc(Cl)c5)c4C3=O)cc2C1=O` [Example 1274, 1-(3-chlorophenyl)-N-(((1r,3r)-3-hydroxycyclobutyl)methyl)-6-(2-methyl-1-oxo-1,2,3,4-tetrahydroisoquinolin-7-yl)-7-oxo-4,5,6,7-tetrahydro-1H-pyrazolo[3,4-c]pyridine-3-carboxamide], for which the pIC50 is 6.00 to 6.52.

Turning to `CN1CCc2ncc(N3CCc4c(C(=O)NCC5CC5)nn(-c5cccc(Cl)c5)c4C3=O)cc2C1` [Example 1040, 1-(3-Chlorophenyl)-N-(cyclopropylmethyl)-6-(6-methyl-5,6,7,8-tetrahydro-1,6-naphthyridin-3-yl)-7-oxo-4,5,6,7-tetrahydro-1H-pyrazolo[3,4-c]pyridine-3-carboxamide], the negative logarithm of the IC50 (pIC50) was 5.52 to 6.00.

As for `O=C(NCC1CC1)c1nn(-c2cccc(Cl)c2)c2c1CCN(c1ccc3c(c1)CN(CCCO)CC3)C2=O` [Example 1087, 1-(3-chlorophenyl)-N-(cyclopropylmethyl)-6-(2-(3-hydroxypropyl)-1,2,3,4-tetrahydroisoquinolin-7-yl)-7-oxo-4,5,6,7-tetrahydro-1H-pyrazolo[3,4-c]pyridine-3-carboxamide], the negative-log IC50 (pIC50) was 6.52 to 7.00.

For the molecule `CS(=O)(=O)NCCN1CCc2ccc(N3CCc4c(C(=O)NCC5CC5)nn(-c5cccc(Cl)c5)c4C3=O)cc2C1` [Example 1083, 1-(3-chlorophenyl)-N-(cyclopropylmethyl)-6-(2-(2-(methylsulfonamido)ethyl)-1,2,3,4-tetrahydroisoquinolin-7-yl)-7-oxo-4,5,6,7-tetrahydro-1H-pyrazolo[3,4-c]pyridine-3-carboxamide], the pIC50 was 6.52 to 7.00.

In the case of `CN1CCc2ccc(N3CCc4c(C(=O)NC5COCC5CO)nn(-c5cccc(Cl)c5)c4C3=O)cc2C1=O` (stereo not shown) [Example 1251, 1-(3-chlorophenyl)-N-(4-(hydroxymethyl)tetrahydrofuran-3-yl)-6-(2-methyl-1-oxo-1,2,3,4-tetrahydroisoquinolin-7-yl)-7-oxo-4,5,6,7-tetrahydro-1H-pyrazolo[3,4-c]pyridine-3-carboxamide], the pIC50 is 6.00 to 6.52.

With `Cc1n[nH]c(C)c1CNC(=O)c1nn(-c2cccc(Cl)c2)c2c1CCN(c1ccc3c(c1)C(=O)N(C)CC3)C2=O` [Example 1268, 1-(3-chlorophenyl)-N-((3,5-dimethyl-1H-pyrazol-4-yl)methyl)-6-(2-methyl-1-oxo-1,2,3,4-tetrahydroisoquinolin-7-yl)-7-oxo-4,5,6,7-tetrahydro-1H-pyrazolo[3,4-c]pyridine-3-carboxamide], the negative-log IC50 (pIC50) was 6.00 to 6.52.

As for `CCCN1CCc2ccc(N3CCc4c(C(=O)NCC5CC5)nn(-c5cccc(Cl)c5)c4C3=O)cc2C1` [Example 1052, 1-(3-chlorophenyl)-N-(cyclopropylmethyl)-7-oxo-6-(2-propyl-1,2,3,4-tetrahydroisoquinolin-7-yl)-4,5,6,7-tetrahydro-1H-pyrazolo[3,4-c]pyridine-3-carboxamide], the pIC50 is 6.52 to 7.00.

Consider `CN1CCc2ccc(N3CCc4c(C(=O)NC5COC5)nn(-c5cccc(Cl)c5)c4C3=O)cc2C1` [Example 1041, 1-(3-chlorophenyl)-6-(2-methyl-1,2,3,4-tetrahydroisoquinolin-7-yl)-N-(oxetan-3-yl)-7-oxo-4,5,6,7-tetrahydro-1H-pyrazolo[3,4-c]pyridine-3-carboxamide], for which the pIC50 was 6.00 to 6.52.

In the case of `CNC(=O)NCCN1CCc2ccc(N3CCc4c(C(=O)NCC5CC5)nn(-c5cccc(Cl)c5)c4C3=O)cc2C1` [Example 1084, 1-(3-chlorophenyl)-N-(cyclopropylmethyl)-6-(2-(2-(3-methylureido)ethyl)-1,2,3,4-tetrahydroisoquinolin-7-yl)-7-oxo-4,5,6,7-tetrahydro-1H-pyrazolo[3,4-c]pyridine-3-carboxamide], the pIC50 was 6.52 to 7.00.

Take `CCN1Cc2cc(N3CCc4c(C(=O)NCC5CC5)nn(-c5cccc(Cl)c5)c4C3=O)ccc2C(C)(C)C1` [Example 1082, 1-(3-chlorophenyl)-N-(cyclopropylmethyl)-6-(2-ethyl-4,4-dimethyl-1,2,3,4-tetrahydroisoquinolin-7-yl)-7-oxo-4,5,6,7-tetrahydro-1H-pyrazolo[3,4-c]pyridine-3-carboxamide]: the negative-log IC50 (pIC50) is 6.00 to 6.52.

For the molecule `CCC(C)N1CCc2ccc(N3CCc4c(C(=O)NCC5CC5)nn(-c5cccc(Cl)c5)c4C3=O)cc2C1` (stereo not shown) [Example 1059, 6-(2-(sec-butyl)-1,2,3,4-tetrahydroisoquinolin-7-yl)-1-(3-chlorophenyl)-N-(cyclopropylmethyl)-7-oxo-4,5,6,7-tetrahydro-1H-pyrazolo[3,4-c]pyridine-3-carboxamide], the negative-log IC50 (pIC50) was 6.52 to 7.00.

Turning to `CN1CCC(CN2CCc3c(C(=O)NCc4ccccc4)nn(-c4cccc(Cl)c4)c3C2=O)CC1` [Example 1016, N-Benzyl-1-(3-chlorophenyl)-6-((1-methylpiperidin-4-yl)methyl)-7-oxo-4,5,6,7-tetrahydro-1H-pyrazolo[3,4-c]pyridine-3-carboxamide], the pIC50 is 4.40 to 5.00.

For `O=C(NCC1CC1)c1nn(-c2cccc(Cl)c2)c2c1CCN(c1ccc3c(c1)CN(CC1CC1(F)F)CC3)C2=O` (stereo not shown) [Example 1097, 1-(3-chlorophenyl)-N-(cyclopropylmethyl)-6-(2-((2,2-difluorocyclopropyl)methyl)-1,2,3,4-tetrahydroisoquinolin-7-yl)-7-oxo-4,5,6,7-tetrahydro-1H-pyrazolo[3,4-c]pyridine-3-carboxamide], the pIC50 was 5.52 to 6.00.

As to `Cc1ccc(N2CCc3c(C(=O)NCC4CC4)nn(-c4cccc(Cl)c4)c3C2=O)cc1C(=O)N(C)C` [Example 1244, 1-(3-chlorophenyl)-N-(cyclopropylmethyl)-6-(3-(dimethylcarbamoyl)-4-methylphenyl)-7-oxo-4,5,6,7-tetrahydro-1H-pyrazolo[3,4-c]pyridine-3-carboxamide], the pIC50 was 5.00 to 5.52.

On to `O=C(NCc1ccccc1)c1nn(-c2cccc(Cl)c2)c2c1CCN(c1cccc(CN3CCOCC3)c1)C2=O` [Example 1018, N-benzyl-1-(3-chlorophenyl)-6-(3-(morpholinomethyl)phenyl)-7-oxo-4,5,6,7-tetrahydro-1H-pyrazolo[3,4-c]pyridine-3-carboxamide], for which the pIC50 was 5.52 to 6.00.

For the origin of these results see patent publication US20260132132A1, “3A,4,5,6-TETRAHYDRO-1 H-PYRAZOLO[3,4-C]PYRIDIN-7(7AH)-ONE DERIVATIVES AS FACTOR XIIA INHIBITORS” (KALVISTA PHARMACEUTICALS LIMITED, priority 2022, published 2026).
